From patent US8841132B2, “Method for detecting compounds containing sulfenic acid using a 1,3-cyclohexanedione-based probe” (Wake Forest University Health Sciences, priority 2004, dated 2014)

Legend:
[1] = biological target: T1, sulfenic acid form of C165S AhpC (Salmonella typhimurium, UniProt P0A251, C166S); assay: Labeling of sulfenic acid-containing C165S AhpC, adducts analysed by ESI-MS; type: biochemical; conditions: for Observed increase in mass of product compared with R—SH form / covalent adduct formation with the sulfenic acid form of the peroxidase: ESI-MS, 5 mM reagent; for Observed increase in mass of product compared with R—SH form: 60 min, room temperature; for covalent adduct formation with the sulfenic acid form of the peroxidase: aqueous neutral pH buffer; for labeling of the protein when 1:1 mixtures of 6 and 7 are added: ESI-MS of intact proteins
T1 construct: made in house
Description: (§1) Reactivity of new compounds toward cysteine sulfenic acids in proteins. To test for the reactivity of 6 and 7 toward protein sulfenic acids, a mutant, cysteine-dependent peroxidase enzyme was used in which the oxidized, sulfenic acid form of the cysteinyl redox center is stabilized, yet accessible (the C165S mutant of AhpC from Salmonella typhimurium, a peroxiredoxin) (3, 9, 14).
[drawing 11] washed proteins following incubations with the labeling agents (FIG. 1 and data not shown). As illustrated in FIG. 1 and summarized in Table 1, mass spectrometry results were completely consistent with the expected reactivity and products generated with the sulfenic acid-containing protein using dimedone, 1,3-cyclohexadione and our two new labeling agents (6 and 7). […] Under the conditions used, the sulfenic acid form of the protein either reacts with the reagent or is further oxidized during the workup or analysis of the sample, and is therefore not observed. In a subsequent experiment
Generation of pure, sulfenic acid-containing C165S AhpC. The C165S mutant of AhpC was expressed in bacteria and purified in the presence of 5 mM 1,4-dithiothreitol (added to all buffers) essentially as described previously (9). Purification of wild type AhpC was also carried out as previously described (10). For generation of the sulfenic acid form of C165S AhpC, thawed enzyme in 25 mM phosphate buffer at pH 7, containing 1 mM EDTA, was washed free of the dithiothreitol and transferred into fresh buffer using a PD-10 column (Amersham Biosciences), and pooled fractions were transferred to an anerobic cuvette. The protein solution (160 nmol in 0.60 mL) was made anaerobic by repeated cycles of argon and vacuum over about 30 min, then rapidly titrated with 11 mM hydrogen peroxide to give a maximal absorbance signal at ˜367 nm for the sulfenate anion as described previously (3, 4). In subsequent experiments, optimal sulfenic acid formation was observed by adding and mixing the hydrogen peroxide much more slowly (additions of about 0.05 eq and thorough mixing every ˜1 min) and quantitating the sulfenic acid formed using a freshly-prepared 2-nitro-5-thiobenzoate (TNB) solution (0.28 mL) and a 60 μL aliquot of the protein removed anaerobically from the cuvette (3, 4). Using this method, ˜73% of the protein was converted to the sulfenic acid form after addition of 1.08 eq of hydrogen peroxide. Protein was kept in the anaerobic cuvette at room temperature for several hours before conducting experiments with no loss in sulfenic acid content.
(§2) Labeling of sulfenic acid-containing C165S AhpC for spectral and mass spectrometric analysis. The pure, oxidized enzyme (32 μL, 6 nmol each) from the anaerobic cuvette was added to argon-flushed 500 μL Eppendorf tubes containing the compound of choice (either dimethylsulfoxide alone, or dimethylsulfoxide into which dimedone, 1,3-cyclohexanedione, 6 or 7 had been dissolved) to give a final concentration of 5 mM for the added reagent in final volumes of 50 μL, and the tubes were flushed again with argon before closing. Other redox forms of C165S AhpC or the wild-type enzyme were also tested for reactivity with one or more of these four compounds. Approximate 100 mM stock solutions of 6 or 7 in dimethylsulfoxide were standardized using expected extinction coefficients of 5,700 or 25,000 M^−1 cm^−1, respectively, for the esterified isatoic acid conjugate or the methoxycoumarin conjugate in methanol (11). Samples were incubated at room temperature for 60 min, then transferred to Apollo ultrafiltration devices (30K cutoff, Orbital Biosciences, Topsfield, Mass.), washed with 5.5 mL 10 mM ammonium bicarbonate and reconcentrated to about 50 μL, for a total of four washes (>10^8-fold dilution of the initial small molecule components).
Mass spectrometric and spectral analyses of adducts with the sulfenic acid-containing form of C165S AhpC. […]

[2] = system: thiol, disulfide or hyperoxidized forms of AhpC (wild type or C165S); assay: Control reactions with other redox forms of AhpC (ESI-MS adduct detection); type: biochemical, Salmonella typhimurium; conditions: for reaction with protein amine groups: reduced or oxidized wild type or reduced C165S AhpC; for reactivity of thiol, disulfide or hyperoxidized forms of AhpC (ESI-MS-detectable adduct formation): wild type or C165S
From the text: as §1
The thiol group of the reduced protein and the oxidized, disulfide-bonded form of wild type AhpC were also unreactive toward these compounds, as confirmed by electrospray ionization mass spectrometry (ESI-MS) of the ammonium bicarbonate-washed
(§3) Specificity of fluorescent, cyclohexadione-derived regents toward sulfenic acids in proteins. The known reactivity of the nucleophilic center of dimedone is toward cysteine sulfenic acids and aldehydes (15, 16). […] To test for general cross-reactivity of these reagents with other oxidized sulfur-containing functional groups, we tested the reactivity of dimedone, as a model reagent, with a S-nitrosothiol and two sulfoxides.
as §2

[3] = Cross-reactivity with S-nitrosothiol (absorbance spectroscopy); conditions: one hour, room temperature
From the text: as §3

[4] = Cross-reactivity with sulfoxide (NMR, spectroscopic and chemical isolation); conditions: aqueous solution
From the text: as §3

[5] = Control reaction with aldehyde
[6] = cited from earlier work
[7] = Control reaction with amine

T1 sequence (P0A251 whole entry C166S): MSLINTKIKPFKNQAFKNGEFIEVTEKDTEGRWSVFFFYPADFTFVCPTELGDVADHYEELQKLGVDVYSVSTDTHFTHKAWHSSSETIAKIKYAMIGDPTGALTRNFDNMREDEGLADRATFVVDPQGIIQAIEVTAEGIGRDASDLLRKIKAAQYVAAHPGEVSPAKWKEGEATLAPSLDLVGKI

Row | SMILES | reactivity toward cysteine sulfenic acids relative to dimedone [1] | Observed increase in mass of product compared with R—SH form [1] | reaction with protein amine groups [2] | reactivity of thiol, disulfide or hyperoxidized forms of AhpC (ESI-MS-detectable adduct formation) [2] | covalent adduct formation with the sulfenic acid form of the peroxidase [1] | labeling of the protein when 1:1 mixtures of 6 and 7 are added [1] | reaction with S-nitrosoglutathione [3] | reaction with dimethyl sulfoxide [4] | reaction with methionine sulfoxide [4] | reaction with butyraldehyde ([5]; in the presence of piperidine, 50° C., aqueous ethanol) | reaction with butyraldehyde ([5]; room temperature, absence of base) | pka of active methylene group [6] | reaction with benzylamine ([7]; aqueous ethanol) | reaction with benzylamine ([7]; organic solvent)
1 | O=C1CCCC(=O)C1 [1,3-cyclohexadione, 1,3-cyclohexanedione] | at least equivalent reactivity | 109.2 amu | – | – | – | – | – | – | – | – | – | – | – | –
2 | CNc1ccccc1C(=O)OCCCC1CCC(=O)CC1=O (stereo not shown) [compound 6, 3-(2,4-Dioxocyclohexyl)propyl 2-(methylamino)benzoate] | – | 300.7 amu | do not react | lack of reactivity | gave covalent adducts | approximately equal labeling | – | – | – | – | – | – | – | –
3 | COc1ccc2cc(NC(=O)OCCCC3CCC(=O)CC3=O)c(=O)oc2c1 (stereo not shown) [compound 7, 3-(2,4-Dioxocyclohexyl)propyl 7-methoxy-2-oxo-2H-chromen-3-ylcarbamate] | – | 384.5 amu | do not react | lack of reactivity | gave covalent adducts | approximately equal labeling | – | – | – | – | – | – | – | –
4 | CC1(C)CC(=O)CC(=O)C1 [dimedone, 5,5-dimethyl-1,3-cyclohexanedione] | – | 137.3 amu | – | lack of reactivity | – | – | fails to react | does not react | does not react | reacts | fails to react | 5.15 | no reaction occurs | condenses with benzylamine to form an imine
